In BigSolDB 2.1:

Nc1c([N+](=O)[O-])c2no[n+]([O-])c2c2no[n+]([O-])c12
solubility (mole fraction)
Settings | 288.15 K | 293.15 K | 298.15 K | 303.15 K | 308.15 K | 313.15 K | 318.15 K | 323.15 K | 328.15 K | 333.15 K
in 1,2-dichloroethane | 2.98e-05 | 3.64e-05 | 4.41e-05 | 5.31e-05 | 6.32e-05 | 7.49e-05 | 8.9e-05 | 0.000105 | 0.000122 | 0.000142
in DMF | 0.00618 | 0.00747 | 0.00896 | 0.0107 | 0.0126 | 0.0149 | 0.0175 | 0.0204 | 0.0236 | 0.0273
in DMSO | – | 0.0118 | 0.0138 | 0.0161 | 0.0187 | 0.0217 | 0.0249 | 0.0286 | 0.0327 | 0.0373
in NMP | 0.00799 | 0.00948 | 0.0112 | 0.0131 | 0.0153 | 0.0178 | 0.0206 | 0.0237 | 0.0272 | 0.031
in acetic acid | – | 7.86e-05 | 9.36e-05 | 0.000112 | 0.000131 | 0.000154 | 0.000178 | 0.000206 | 0.000237 | 0.000271
in acetone | 0.000797 | 0.00087 | 0.000968 | 0.00109 | 0.00123 | 0.00137 | 0.00154 | 0.00174 | – | –
in acetonitrile | 0.000322 | 0.000374 | 0.000434 | 0.000497 | 0.00057 | 0.000654 | 0.000744 | 0.000845 | 0.000956 | 0.00108
in cyclohexanone | 0.0018 | 0.00198 | 0.00218 | 0.0024 | 0.00266 | 0.00295 | 0.00328 | 0.00366 | 0.00409 | 0.00457
in dichloromethane | 1.37e-05 | 1.73e-05 | 2.15e-05 | 2.68e-05 | 3.31e-05 | – | – | – | – | –
in ethanol | 6.85e-06 | 8.94e-06 | 1.18e-05 | 1.52e-05 | 1.95e-05 | 2.47e-05 | 3.14e-05 | 3.94e-05 | 4.92e-05 | 6.02e-05
in ethyl acetate | 0.000211 | 0.000244 | 0.00028 | 0.000321 | 0.000367 | 0.000419 | 0.000475 | 0.000536 | 0.000605 | 0.000681
in methanol | 1.44e-05 | 1.88e-05 | 2.42e-05 | 3.14e-05 | 4.01e-05 | 5.01e-05 | 6.33e-05 | 7.91e-05 | 9.73e-05 | 0.000121
in o-xylene | 2.4e-05 | 3.15e-05 | 4.14e-05 | 5.34e-05 | 6.87e-05 | 8.74e-05 | 0.000109 | 0.000137 | 0.000169 | 0.000208
in propionic acid | 1.94e-05 | 2.45e-05 | 3.15e-05 | 3.97e-05 | 4.97e-05 | 6.16e-05 | 7.63e-05 | 9.37e-05 | 0.000114 | 0.00014
in toluene | 1.03e-05 | 1.34e-05 | 1.84e-05 | 2.45e-05 | 3.26e-05 | 4.29e-05 | 5.63e-05 | 7.28e-05 | 9.4e-05 | 0.00012
